Results taken from EP1025226B1, “DNA ENCODING A HUMAN PROTON-GATED ION CHANNEL AND USES THEREOF” (McGill University, priority 1997, dated 1999).
Where two headings read alike, the source gives them in different places.

Legend:
[1] = target: T1, human non-inactivating proton-gated ion channel hASIC3 (homomeric channels), SEQ ID No. 2 (Homo sapiens, UniProt Q9UHC3); assay: Two-electrode voltage clamp of proton-induced currents in Xenopus oocytes expressing the channel; format: cell-based; conditions: for remaining activity at 100 µM: 100 µM amiloride, currents activated by pH 4.0, mean +/- SEM (n= 17); for inhibition at 100 µM: co-application of 100 micro M amiloride with pH 4.0, biphasic response, hASIC3 in Xenopus oocytes
T1 sequence (Q9UHC3 1-531): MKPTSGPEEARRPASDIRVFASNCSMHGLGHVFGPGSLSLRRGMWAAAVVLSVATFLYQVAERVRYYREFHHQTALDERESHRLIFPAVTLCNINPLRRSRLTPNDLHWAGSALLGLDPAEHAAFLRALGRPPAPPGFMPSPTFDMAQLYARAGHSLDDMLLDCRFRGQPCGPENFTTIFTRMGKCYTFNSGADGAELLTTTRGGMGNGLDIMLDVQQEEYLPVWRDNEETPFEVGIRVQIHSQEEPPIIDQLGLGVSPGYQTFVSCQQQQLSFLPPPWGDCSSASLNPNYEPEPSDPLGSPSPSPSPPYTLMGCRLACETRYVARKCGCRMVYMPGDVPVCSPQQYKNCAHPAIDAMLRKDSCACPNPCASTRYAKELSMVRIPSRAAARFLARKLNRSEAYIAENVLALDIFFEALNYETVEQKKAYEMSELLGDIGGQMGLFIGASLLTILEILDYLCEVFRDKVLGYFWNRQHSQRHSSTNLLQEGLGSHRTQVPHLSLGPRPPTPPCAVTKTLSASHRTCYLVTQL
Experimental: Oocytes surgically removed from adult Xenopus laevis were treated for 2 h at room temperature with type II collagenase (Gibco-BRL) in Barth's solution under constant agitation. Selected oocytes at stage IV-V were defolliculated manually before nuclear micro-injections (Bertrand et al., 1991) of 5 ng of hASlC3 in pcDNA3 vector. After 2-4 days of expression at 19^-C in Barth's solution containing 50Êg/ml gentamycin, currents were recorded in the two-electrode voltage clamp configuration using an OC-725B amplifier (Warner Instruments). Whole cell currents were acquired and digitized at 500 Hz on a Macintosh IIci computer with an A/D NB-MIO16XL interface (National Instruments) then recorded traces were post-filtered at 100 Hz in Axograph (Axon Instruments). Agonist, amiloride and wash solutions were prepared in a modified Ringer's solution containing 115 mM NaCl, 2.5 mM KCI, 1.8 mM CaCl2 in 5-20 mM HEPES (Sigma) buffer adjusted with NaOH or HCl at pH 2 to 8 and applied on oocytes by constant perfusion (10-12 ml/min) at room temperature. Mean values ± SEM corresponded to measurements from a minimum of 5 oocytes.

[2] = target: hASIC3 (human non-inactivating amiloride-sensitive proton-gated ion channel subunit) (human); assay: cell-based or functional assay
[3] = target: rat P2x2 (ATP-gated ion channel subunit) (rat) (UniProt P49653); assay: cell-based or functional assay
rat P2x2 (ATP-gated ion channel subunit) (rat), sequence (P49653 whole entry): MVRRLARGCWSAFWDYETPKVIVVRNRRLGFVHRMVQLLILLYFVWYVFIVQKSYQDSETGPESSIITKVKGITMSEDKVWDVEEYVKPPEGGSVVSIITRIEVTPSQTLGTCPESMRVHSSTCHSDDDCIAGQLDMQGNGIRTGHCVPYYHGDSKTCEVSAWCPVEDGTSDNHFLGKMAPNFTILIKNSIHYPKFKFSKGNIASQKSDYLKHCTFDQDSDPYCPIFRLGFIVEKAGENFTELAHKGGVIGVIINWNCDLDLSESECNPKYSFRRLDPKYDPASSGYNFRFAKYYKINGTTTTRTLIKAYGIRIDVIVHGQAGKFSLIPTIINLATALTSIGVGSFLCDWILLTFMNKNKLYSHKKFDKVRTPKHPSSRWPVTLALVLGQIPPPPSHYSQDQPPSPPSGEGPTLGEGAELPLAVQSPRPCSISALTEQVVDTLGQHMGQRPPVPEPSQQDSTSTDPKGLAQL

Compound: N=C(N)NC(=O)c1nc(Cl)c(N)nc1N [amiloride]
- remaining activity at 100 µM ([1]; read-out: residual peak currents during amiloride application, fast component, expressed as percent of controls): 37.2 ± 6.4%
- remaining activity at 100 µM ([1]; read-out: residual peak currents during amiloride application, sustained component, expressed as percent of controls): 72 ± 3.8%
- inhibition at 100 µM ([1]; read-out: blockade of the fast current by amiloride): 62.8 ± 6.5%
- inhibition at 100 µM ([1]; read-out: blockade of the slow current by amiloride): 28.7 ± 4.6%

Compound: hASIC3 (human non-inactivating amiloride-sensitive proton-gated ion channel subunit)
- non-inactivating cationic current induced by strong acid in Xenopus oocytes injected with the hASIC3 clone alone [2]: 4 pH
- inward currents in Xenopus oocytes coinjected with hASIC3 and P2x2 (two-electrode voltage clamp), activating pH [3]: 6.5 pH
- non-inactivating cation current induced by weak acid in Xenopus oocytes coinjected with hASIC3 clone and rat P2x2 clone [3]: 6.5 pH
